Laboratory results: PMC8786932, “Bicyclic azetidines target acute and chronic stages of Toxoplasma gondii by inhibiting parasite phenylalanyl t-RNA synthetase” (Nature Communications, 2022)
Where “and” joins values, the source holds several entries; their conditions need not be identical. Equal values may be shown once. Read-outs that look alike come from different tables or passages of the source.

What was measured:
[1] = biological target: T. gondii tachyzoites (type II ME49-FLuc); assay: Luciferase-based tachyzoite growth assay; format: cell-based, Toxoplasma gondii; design: EC50 log inhib vs normalized response: unit: µM; conditions: for EC50 log inhib vs normalized response: Fig 1A rank order, T. gondii growth
Experimental: All assays were carried out in a 96-well plate format containing confluent HFF monolayers to support parasite growth. To avoid edge effects, only the inner 60 wells of each plate were used. All compounds described were provided by the Broad Institute as 10 mM stocks in 100% DMSO and stored at −80 °C prior to use. Pyrimethamine (Sigma-Aldrich) was prepared as 5 mM stock in 100% DMSO and stored at −20 °C prior to use.
All statistical analyses were conducted using Prism 9 (GraphPad Software, Inc.). Dose–response inhibition curves for parasite and host cell toxicity screens (EC50 values) were generated using (Log(inhibitor) vs. normalized response—Variable slope) function. […] For multiple comparisons, two-way ANOVA analysis function using either Sidák’s multiple comparisons test or Dunnett’s multiple comparisons test was applied as indicated.

[2] = tested on: C. parvum; conditions: Fig 2A Tg_Pf_Cp EC50s; previously reported values, reference not visible in the shown part; cited from earlier work
[3] = tested on: blood-stage P. falciparum; conditions: Fig 2A Tg_Pf_Cp EC50s; previously reported values, reference not visible in the shown part; cited from earlier work
[4] = biological target: N. caninum expressing lacZ; assay: Neospora caninum β-galactosidase assay; format: cell-based
Experimental: β-galactosidase assays were conducted using tissue culture grade 96-well plates (TPP) containing confluent monolayers of HFF cells. A 10-point compound dilution series (2-fold) for each compound was generated as described above (2X concentration, 0.1% final DMSO). Growth of the N. caninum strain expressing lacZ was monitoring using a β-galactosidase (β-gal) assay as described in[21] with the following modifications. N. caninum lacZ expressing parasites (1 × 10^3) were added (in 100 μL volume) into 96-well plates containing HFF monolayers to reach final compound concentration (5.0 μM to 0.002 μM in 200 μL total volume). Plates were incubated at 37 °C, 5% CO2 for 72 h prior to completing β-gal assay as previously described[23],[27],[51]. Briefly, parasite containing monolayers were lysed with 1.0% Triton X-100 and β-gal activity determined by adding 1 mM chlorophenolred-β-D-galactopyranoside followed by monitoring absorption at 570 nm on a Cytation 3 multi-mode imager (BioTek), as described.

[5] = tested on: ex vivo T. gondii ME49-FLuc bradyzoites from tissue cysts of chronically infected mice; assay: Ex vivo bradyzoite treatment assay (plaque assay); format: cell-based, Toxoplasma gondii; conditions: Fig 5H top 4, replicates, listed as Pyr
Experimental: The brains from CBA/J mice chronically infected with the ME49-FLuc strain were harvested, homogenized, and tissue cysts isolated on Percoll gradients, as described previously[9],[27]. Following isolation, purified tissue cysts were treated with acid-pepsin solution ([…] sodium chloride (NaCl), 60 mM hydrochloric acid (HCl) and freshly made pepsin (0.1 mg/mL in 1xPBS) for 10 min at 37 °C. Following acid-pepsin treatment and addition of neutralization buffer (94 mM sodium carbonate (Na2CO3), liberated bradyzoites were equally distributed into 6-well plates with 5 mL culture media containing compounds or vehicle control (0.1–0.2% DMSO final concentration). Plates were incubated undisturbed for 12–14 days followed by fixation in 100% ethanol (ETOH) for 5 min at RT, rinsing with tap water, staining in 0.1% crystal violet solution for 10 min at RT, rinsing in water and air drying. Plaques were quantified on a Zeiss AxioObserver microscope equipped with a ×2.5 objective (Department of Molecular Microbiology Imaging Facility at the Washington University School of Medicine).

[6] = tested on: T. gondii ME49-FLuc tissue cysts; format: in vivo, Ifngr1-/- mice; conditions: mouse, in vivo
Experimental: (§1) Ifngr1^−/− (B6.129S7-Ifngr1 ^tm1Agt /J) and CBA/J mice were purchased from Jackson Laboratory and bred locally at Washington University. Animal studies were conducted according to the U.S. Public Health Service policy on human care and use of laboratory animals. Animals were maintained in facilities approved by the Association for Assessment and Accreditation of Laboratory Animal Care. Studies were approved by Division of Comparative Medicine, Washington University. […] Animals were maintained on a 12:12 light cycle, room temperature maintained at 70℉ ± 2℉, and room humidity maintained at 50% ± 20%.
(§2) Testing of compounds to prevent reactivation of chronic infection was […] to test the efficacy of PheRS inhibitors against chronic infection. In both cases, male and female C57BL/6 Ifngr1^−/− mice were infected by oral gavage with 5 cysts of the ME49-Fluc strain isolated from chronically infected CBA/J mice. […] Animals were monitored for survival and weight loss for 30 days post-treatment.

[7] = tested on: T. gondii ME49-FLuc chronic infection; format: in vivo, Ifngr1-/- mice; conditions: mouse, in vivo
Experimental: as §1, §2

[8] = Table S1, ME49-FLuc tachyzoites, read-out: T. gondii EC50
[9] = Toxoplasma gondii, Table S1, ME49-FLuc tachyzoites, read-out: T. gondii EC50
[10] = Fig S2 source data, read-out: T. gondii (EC50, Fig S2 source data)
[11] = Fig S2 source data, read-out: N. caninum (EC50, Fig S2 source data)
[12] = Table S3, 72 h, lacZ, read-out: N. caninum EC50
[13] = Fig 2A Tg_Pf_Cp EC50s, read-out: EC50 T. gondii
[14] = Toxoplasma gondii, Fig. 2b, stereoisomers of BRD3444, mean of two biological replicates, read-out: Tg EC50

| Structure (SMILES) | EC50 log inhib vs normalized response [1] | EC50 [1, 8] | EC50 [1, 9] | EC50 [3] | EC50 [1, 13] | other results |
| --- | --- | --- | --- | --- | --- | --- |
| O=C(Nc1cccc(F)c1)N1CCCCN2[C@H](CO)[C@H](c3ccc(C#Cc4cccnc4)cc3)[C@@H]2C1 [BRD5999] | 0.4926 | 492 nM | – | – | – | – |
| COc1ccc(NC(=O)N2CCCCN3[C@@H](CO)[C@@H](c4ccc(C#Cc5ccccc5)cc4)[C@@H]3C2)cc1 [BRD2430] | 1.548 | – | 1550 nM | – | – | – |
| COc1ccc(NC(=O)N2CCCCN3C[C@H](c4ccc(C#Cc5ccccc5)cc4)[C@@H]3C2)cc1 [BRD3914] | 0.07697 | 76 nM | – | 13 nM | – | EC50 [1, 10]: 77 nM; EC50 [2]: 62 nM; EC50 [4, 11]: 193 nM; EC50 [4, 12]: 193 nM |
| COc1ccc(NC(=O)N2CCCCN3[C@H](CO)[C@@H](c4ccc(C#Cc5ccccc5)cc4)[C@H]3C2)cc1 [BRD8194] | 2.955 | – | 2960 nM | – | – | – |
| COc1ccc(NC(=O)N2CCCCN3[C@H](CO)[C@H](c4ccc(C#Cc5ccccc5)cc4)[C@]3(CO)C2)cc1 [BRD2936] | 1.687 | – | – | 1870 nM | 1690 nM | EC50 [2]: 1080 nM |
| COc1ccc(NC(=O)N2CCCCN3[C@H](CO)[C@@H](c4ccc(C#Cc5ccccc5)cc4)[C@@H]3C2)cc1 [BRD2574] | 1.487 | – | 1490 nM | – | – | – |
| COc1ccc(NC(=O)N2CCCCN3[C@@H](CO)[C@H](c4ccc(C#Cc5ccccc5)cc4)[C@@H]3C2)cc1 [BRD9995] | 0.1187 | – | 118 nM | – | – | EC50 [1, 14]: 119 nM |
| COc1ccc(NC(=O)N2CCCCN3[C@H](CO)[C@H](c4ccc(C#CC5CC5)cc4)[C@@H]3C2)cc1 [BRD5774] | 1.609 | – | – | 12200 nM | 1610 nM | – |
| COc1ccc(NC(=O)N2CCCCN3[C@H](C2)[C@H](c2ccc(C#Cc4ccccc4)cc2)[C@@H]3CO)cc1 [BRD4569] | 3.376 | – | 3380 nM | – | – | EC50 [1, 14]: 3370 nM |
| COc1ccc(NC(=O)N2CCCCN3[C@@H](CO)[C@H](c4ccc(C#Cc5ccccn5)cc4)[C@@H]3C2)cc1 [BRD9257] | 0.6463 | 646 nM | – | 155 nM | 646 nM | – |
| COc1ccc(NC(=O)N2CCCCN3[C@H](CO)[C@H](c4ccc(C#Cc5ccccc5)cc4)[C@H]3C2)cc1 [BRD3182] | 1.697 | – | 1700 nM | – | – | – |
| COc1ccc(NC(=O)N2CCCN3[C@H](CO)[C@H](c4ccc(C#Cc5ccccc5)cc4)[C@@H]3C2)cc1 [BRD9599] | 1.748 | – | – | 850 nM | 1750 nM | EC50 [2]: 250 nM |
| CCc1nc(N)nc(N)c1-c1ccc(Cl)cc1 [Pyrimethamine, reference compound] | 0.2476 | – | 247 nM | – | – | Ex vivo bradyzoite plaques, normalised to DMSO = 100 ([5]; Constant treatment): 2.0 and 0.5 and 1.9; Ex vivo bradyzoite plaques, normalised to DMSO = 100 ([5]; Washout): 115.2 and 93 and 95.5; EC50 ([1]; Toxoplasma gondii, ME49-FLuc, 10-point dose-response, two biological replicates, read-out: EC50, T. gondii tachyzoite growth): 248 nM |
| Nc1ccc(S(=O)(=O)Nc2ncccn2)cc1 [sulfadiazine, reference compound] | – | – | – | – | – | mean survival [6]: 10 days; Days (survival time of single mouse) [7]: 7 days and 9 days and 29 days and 11 days and 5 days; Survival event flag of single mouse (1 or 0) [7]: 1 and 0 |
| COc1ccc(NC(=O)N2CCCCCN3[C@H](CO)[C@H](c4ccc(C#Cc5ccccc5)cc4)[C@@H]3C2)cc1 [BRD0185] | 0.1693 | 169 nM | – | 87 nM | – | EC50 [1, 10]: 169 nM; EC50 [2]: 33 nM; EC50 [4, 11]: 156 nM; EC50 [4, 12]: 156 nM |
| COc1ccc(NC(=O)N2CCCCN3[C@H](CN4CCN(C)CC4)[C@H](c4ccc(C#Cc5ccccc5)cc4)[C@@H]3C2)cc1 [BRD6479] | 0.4249 | 424 nM | – | 158 nM | 425 nM | – |
| OC[C@@H]1[C@H](c2ccc(C#Cc3ccccc3)cc2)[C@@H]2CN(c3nc4ccccc4s3)CCCCN12 [BRD5349] | 3.944 | – | – | 8320 nM | 3940 nM | – |
| O=C(NC1CCC1)N1CCCCN2[C@H](CO)[C@H](c3ccc(C#Cc4ccccc4)cc3)[C@@H]2C1 [BRD8260] | 2.575 | – | – | 19500 nM | 2580 nM | – |
| COc1ccc(NC(=O)N2CCCCN3[C@H](C2)[C@@H](c2ccc(C#Cc4ccccc4)cc2)[C@@H]3CO)cc1 [BRD3801] | 4.096 | – | 4100 nM | – | – | – |
| COc1ccc(NC(=O)N2CCCCN3[C@H](CN4CCC4)[C@H](c4ccc(C#Cc5ccccc5)cc4)[C@@H]3C2)cc1 [BRD8493] | 0.4416 | 441 nM | – | 116 nM | 442 nM | – |
| COc1ccc(NC(=O)N2C[C@@H](O)[C@@H](O)CN3[C@H](CN(C)C)[C@H](c4ccc(C#Cc5ccccc5)cc4)[C@@H]3C2)cc1 [BRD5018] | 0.03927 | 39 nM | – | 13 nM | – | EC50 [1, 10]: 39.3 nM; EC50 [4, 11]: 29.9 nM; EC50 [4, 12]: 29 nM |
| COc1ccc(NC(=O)N2CCCCN3[C@H](CO)[C@H](c4ccc(C#Cc5ccccc5C#N)cc4)[C@@H]3C2)cc1 [BRD4873] | 0.2134 | 213 nM | – | 261 nM | 213 nM | – |
